Earlier results in patent publication EP4541846A1, “ENCAPSULANT FILM COMPOSITION, AND ENCAPSULANT FILM COMPRISING SAME” (LG Chem, Ltd., priority 2022, dated 2024).
Where a name gives a salt, the structure may show the parent alone.

Details: marked by acute toxicity, oral/acute toxicity, percutaneous/skin corrosivity/skin irritation/severe eye damage/eye irritation/dermal hypersensitivity, or the like

Compound | harmfulness/dangerousness classification in SDS
C=CCOC(=O)OC(=O)OCC=C [diallyl decarbonate] | harmful
C=CCOC(=O)/C=C\C(=O)OCC=C [diallyl maleate] | harmful
C=CCOC(=O)/C=C/C(=O)OCC=C [diallyl fumarate] | harmful
